ChEMBL document CHEMBL4229513, “Decoy peptides derived from the extracellular domain of toll-like receptor 2 (TLR2) show anti-inflammatory properties” (Bioorg Med Chem, 2018)
Calls of active or inactive are those of the source. No cut-off for these calls is given here.

What was measured:
Assay type in all cases: cell-based
[1] = target: T1, Toll-like receptor 1/2 (Mus musculus) (UniProt Q9QUN7+Q9EPQ1); test: Antagonist activity at TLR2/TLR1 in mouse BMDM assessed as inhibition of Rhodamine-labeled Pam3CSK4-stimulated receptor internalization at 1 uM preincubated for 1 hr followed by Rhodamine-Pam3CSK4 stimulation for 20 mins by FACS analysis
Toll-like receptor 1/2 [2] = target: T2, Toll-like receptor 1/2 (Homo sapiens, UniProt O60603+Q15399); test: Antagonist activity at FLAG-tagged human TLR2/TLR1 expressed in HEK293 cells assessed as inhibition of Pam3CSK4-stimulated MAPK p38 phosphorylation at Thr180/Tyr182 residues at 25 uM preincubated for 1 hr followed by Pam3CSK4 stimulation for 35 mins by immunoblot analysis
Toll-like receptor 1/2 [3] = target: T2, Toll-like receptor 1/2; test: Antagonist activity at FLAG-tagged human TLR2/TLR1 expressed in HEK293 cells assessed as inhibition of Pam3CSK4-stimulated JNK phosphorylation at Thr183/Tyr185 residues at 25 uM preincubated for 1 hr followed by Pam3CSK4 stimulation for 35 mins by immunoblot analysis
Toll-like receptor 1/2 [4] = target: T2, Toll-like receptor 1/2; test: Antagonist activity at FLAG-tagged human TLR2/TLR1 expressed in HEK293 cells co-expressing pGL3-Elam.luc assessed as inhibition of Pam3CSK4-stimulated NF-kappaB activation at 50 uM preincubated for 1 hr followed by Pam3CSK4 stimulation for 5 hrs by luciferase reporter gene assay relative to control
[5] = target: T1, Toll-like receptor 1/2 (Mus musculus); test: Antagonist activity at TLR2/TLR1 in mouse BMDM assessed as inhibition of Rhodamine-labeled Pam3CSK4-stimulated receptor internalization at 50 uM preincubated for 1 hr followed by Rhodamine-Pam3CSK4 stimulation for 20 mins by DAPI staining based phase contrast fluorescence microscopic method
TLR2/TLR6 (Homo sapiens) = TLR2/TLR6 (Homo sapiens) (UniProt O60603+Q9Y2C9); test: Antagonist activity at FLAG-tagged human TLR2/TLR6 expressed in HEK293 cells co-expressing pGL3-Elam.luc assessed as inhibition of Pam2CSK4-stimulated NF-kappaB activation preincubated for 1 hr followed by Pam2CSK4 stimulation for 5 hrs by luciferase reporter gene assay
[6] = target: T1, Toll-like receptor 1/2 (Mus musculus); test: Antagonist activity at TLR2/TLR1 in mouse BMDM assessed as inhibition of Pam3CSK4-stimulated TNFalpha production by measuring TNFalpha level at 25 uM preincubated for 1 hr followed by Pam3CSK4 stimulation for 11 hrs by ELISA relative to control; set-up: scale not given: the % may be the effect or the level left
BMDM = test: Cytotoxicity against mouse BMDM at 100 uM after overnight incubation by CCK8 assay
Toll-like receptor 1/2 [7] = target: T2, Toll-like receptor 1/2; test: Antagonist activity at FLAG-tagged human TLR2/TLR1 expressed in HEK293 cells co-expressing pGL3-Elam.luc assessed as inhibition of Pam3CSK4-stimulated NF-kappaB activation preincubated for 1 hr followed by Pam3CSK4 stimulation for 5 hrs by luciferase reporter gene assay
[8] = target: T3, Toll-like receptor 4 (Mus musculus) (UniProt Q9QUK6); test: Antagonist activity at TLR4 in mouse BMDM assessed as inhibition of LPS-stimulated TNFalpha production at 25 uM preincubated for 1 hr followed by LPS stimulation for 11 hrs by ELISA
T3 sequence (whole entry): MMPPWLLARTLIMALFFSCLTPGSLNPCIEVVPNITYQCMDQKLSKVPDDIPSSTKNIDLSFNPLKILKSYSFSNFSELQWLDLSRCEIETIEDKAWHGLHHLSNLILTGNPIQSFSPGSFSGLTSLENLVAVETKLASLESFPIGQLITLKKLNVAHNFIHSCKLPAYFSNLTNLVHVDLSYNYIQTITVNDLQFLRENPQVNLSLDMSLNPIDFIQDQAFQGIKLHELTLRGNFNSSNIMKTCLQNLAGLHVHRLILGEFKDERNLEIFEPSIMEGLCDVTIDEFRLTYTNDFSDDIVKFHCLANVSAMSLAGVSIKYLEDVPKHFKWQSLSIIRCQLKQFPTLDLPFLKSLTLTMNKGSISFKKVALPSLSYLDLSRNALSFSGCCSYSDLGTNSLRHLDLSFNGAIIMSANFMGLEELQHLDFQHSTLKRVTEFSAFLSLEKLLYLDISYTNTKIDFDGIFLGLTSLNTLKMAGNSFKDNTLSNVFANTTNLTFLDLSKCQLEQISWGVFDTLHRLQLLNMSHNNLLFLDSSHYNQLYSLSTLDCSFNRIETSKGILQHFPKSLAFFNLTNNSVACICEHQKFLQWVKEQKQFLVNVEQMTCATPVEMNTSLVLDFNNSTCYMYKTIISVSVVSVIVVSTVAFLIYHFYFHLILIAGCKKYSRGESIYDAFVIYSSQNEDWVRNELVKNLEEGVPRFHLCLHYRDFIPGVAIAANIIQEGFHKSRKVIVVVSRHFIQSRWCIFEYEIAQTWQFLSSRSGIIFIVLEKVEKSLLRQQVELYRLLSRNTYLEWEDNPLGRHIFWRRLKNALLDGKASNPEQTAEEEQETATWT

[9] = target: T1, Toll-like receptor 1/2 (Mus musculus); test: Antagonist activity at TLR2/TLR1 in mouse BMDM assessed as Rhodamine-labeled Pam3CSK4-stimulated receptor internalization at 50 uM preincubated for 1 hr followed by Rhodamine-Pam3CSK4 stimulation for 20 mins by FACS analysis relative to control; set-up: scale not given: the % may be the effect or the level left
[10] = target: T4, Toll-like receptor 3 (Mus musculus) (UniProt Q99MB1); test: Antagonist activity at TLR3 in mouse BMDM assessed as inhibition of poly I:C-stimulated TNFalpha production at 25 uM preincubated for 1 hr followed by poly I:C stimulation for 11 hrs by ELISA
T4 sequence (whole entry): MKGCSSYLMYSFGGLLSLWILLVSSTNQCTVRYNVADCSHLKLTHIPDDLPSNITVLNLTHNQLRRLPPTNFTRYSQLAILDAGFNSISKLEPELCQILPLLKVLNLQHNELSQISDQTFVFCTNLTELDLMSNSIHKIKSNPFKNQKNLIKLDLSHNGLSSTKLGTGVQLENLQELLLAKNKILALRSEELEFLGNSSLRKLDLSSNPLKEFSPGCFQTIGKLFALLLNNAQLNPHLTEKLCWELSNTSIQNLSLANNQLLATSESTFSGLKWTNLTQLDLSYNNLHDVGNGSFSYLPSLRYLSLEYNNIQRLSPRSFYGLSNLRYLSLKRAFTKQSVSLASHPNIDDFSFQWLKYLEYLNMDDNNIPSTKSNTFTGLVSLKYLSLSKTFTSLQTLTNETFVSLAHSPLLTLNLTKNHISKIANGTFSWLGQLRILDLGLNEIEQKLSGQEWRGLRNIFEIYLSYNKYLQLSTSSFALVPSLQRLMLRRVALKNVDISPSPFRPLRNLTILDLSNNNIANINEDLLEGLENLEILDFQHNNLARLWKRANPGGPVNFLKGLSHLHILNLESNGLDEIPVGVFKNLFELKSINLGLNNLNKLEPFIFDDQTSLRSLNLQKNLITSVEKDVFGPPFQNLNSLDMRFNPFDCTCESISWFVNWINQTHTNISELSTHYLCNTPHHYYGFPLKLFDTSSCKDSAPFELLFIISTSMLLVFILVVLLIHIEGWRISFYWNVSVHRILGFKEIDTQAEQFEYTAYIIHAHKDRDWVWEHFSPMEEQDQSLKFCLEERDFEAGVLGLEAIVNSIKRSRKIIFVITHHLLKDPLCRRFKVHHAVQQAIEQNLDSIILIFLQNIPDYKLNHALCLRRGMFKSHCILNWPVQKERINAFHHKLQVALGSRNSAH

Toll-like receptor 1/2 [11] = target: T2, Toll-like receptor 1/2; test: Antagonist activity at FLAG-tagged human TLR2/TLR1 expressed in HEK293 cells co-expressing pGL3-Elam.luc assessed as Pam3CSK4-stimulated NF-kappaB activation at 50 uM preincubated for 1 hr followed by Pam3CSK4 stimulation for 5 hrs by luciferase reporter gene assay relative to control; set-up: scale not given: the % may be the effect or the level left
HEK293 = test: Cytotoxicity against HEK293 cells at 100 uM after overnight incubation by CCK8 assay; conditions: human, hek293, 100 µM
Toll-like receptor 1/2 [12] = target: T2, Toll-like receptor 1/2; test: Antagonist activity at TLR2/TLR1 in human THP1 cells assessed as inhibition of Pam3CSK4-stimulated non-canonical NF-kB pathway by measuring reduction in p52 level at 50 uM preincubated for 1 hr followed by Pam3CSK4 stimulation for 2 hrs by immunoblot analysis
Toll-like receptor 1/2 [13] = target: T2, Toll-like receptor 1/2; test: Antagonist activity at FLAG-tagged human TLR2/TLR1 expressed in HEK293 cells assessed as inhibition of Pam3CSK4-stimulated MAPK p38 phosphorylation at Thr180/Tyr182 residues at 50 uM preincubated for 1 hr followed by Pam3CSK4 stimulation for 35 mins by immunoblot analysis
Toll-like receptor 1/2 [14] = target: T2, Toll-like receptor 1/2; test: Antagonist activity at TLR2/TLR1 in human PBMC assessed as inhibition of Pam3CSK4-stimulated IL-10 production by measuring IL-10 level at 100 uM preincubated with cells followed by overnight Pam3CSK4 stimulation by ELISA (reference value: 794 pg/ml)
THP-1 = test: Cytotoxicity against human THP1 cells at 100 uM after overnight incubation by CCK8 assay; conditions: thp-1, 100 µM
Toll-like receptor 1/2 [15] = target: T2, Toll-like receptor 1/2; test: Antagonist activity at FLAG-tagged human TLR2/YFP-tagged TLR1 expressed in HEK293 cells assessed as inhibition of Pam3CSK4-stimulated TLR1/TLR2 heterodimerization at 25 uM preincubated for 1 hr followed by Pam3CSK4 stimulation for 15 mins by immunoblot analysis
Toll-like receptor 1/2 [16] = target: T2, Toll-like receptor 1/2; test: Antagonist activity at FLAG-tagged human TLR2/TLR1 expressed in HEK293 cells assessed as inhibition of Pam3CSK4-stimulated IkBalpha degradation at 50 uM preincubated for 1 hr followed by Pam3CSK4 stimulation for 35 mins by immunoblot analysis
Toll-like receptor 1/2 [17] = target: T2, Toll-like receptor 1/2; test: Antagonist activity at TLR2/TLR1 in human PBMC assessed as inhibition of Pam3CSK4-stimulated TNFalpha production at 50 uM preincubated with cells followed by overnight Pam3CSK4 stimulation by ELISA relative to control
[18] = target: TLR7 and TLR8 (Mus musculus) (UniProt P58681+P58682); test: Antagonist activity at TLR7/TLR8 in mouse BMDM assessed as inhibition of R848-stimulated TNFalpha production at 25 uM preincubated for 1 hr followed by R848 stimulation for 11 hrs by ELISA
Toll-like receptor 1/2 [19] = target: T2, Toll-like receptor 1/2; test: Antagonist activity at FLAG-tagged human TLR2/TLR1 expressed in HEK293 cells assessed as inhibition of Pam3CSK4-stimulated JNK phosphorylation at Thr183/Tyr185 residues at 50 uM preincubated for 1 hr followed by Pam3CSK4 stimulation for 35 mins by immunoblot analysis
Toll-like receptor 1/2 [20] = target: T2, Toll-like receptor 1/2; test: Antagonist activity at TLR2/TLR1 in human PBMC assessed as inhibition of Pam3CSK4-stimulated IL-10 production at 100 uM preincubated with cells followed by overnight Pam3CSK4 stimulation by ELISA

Chain of TLR7 and TLR8 (Mus musculus) (P58681 whole entry, looked up): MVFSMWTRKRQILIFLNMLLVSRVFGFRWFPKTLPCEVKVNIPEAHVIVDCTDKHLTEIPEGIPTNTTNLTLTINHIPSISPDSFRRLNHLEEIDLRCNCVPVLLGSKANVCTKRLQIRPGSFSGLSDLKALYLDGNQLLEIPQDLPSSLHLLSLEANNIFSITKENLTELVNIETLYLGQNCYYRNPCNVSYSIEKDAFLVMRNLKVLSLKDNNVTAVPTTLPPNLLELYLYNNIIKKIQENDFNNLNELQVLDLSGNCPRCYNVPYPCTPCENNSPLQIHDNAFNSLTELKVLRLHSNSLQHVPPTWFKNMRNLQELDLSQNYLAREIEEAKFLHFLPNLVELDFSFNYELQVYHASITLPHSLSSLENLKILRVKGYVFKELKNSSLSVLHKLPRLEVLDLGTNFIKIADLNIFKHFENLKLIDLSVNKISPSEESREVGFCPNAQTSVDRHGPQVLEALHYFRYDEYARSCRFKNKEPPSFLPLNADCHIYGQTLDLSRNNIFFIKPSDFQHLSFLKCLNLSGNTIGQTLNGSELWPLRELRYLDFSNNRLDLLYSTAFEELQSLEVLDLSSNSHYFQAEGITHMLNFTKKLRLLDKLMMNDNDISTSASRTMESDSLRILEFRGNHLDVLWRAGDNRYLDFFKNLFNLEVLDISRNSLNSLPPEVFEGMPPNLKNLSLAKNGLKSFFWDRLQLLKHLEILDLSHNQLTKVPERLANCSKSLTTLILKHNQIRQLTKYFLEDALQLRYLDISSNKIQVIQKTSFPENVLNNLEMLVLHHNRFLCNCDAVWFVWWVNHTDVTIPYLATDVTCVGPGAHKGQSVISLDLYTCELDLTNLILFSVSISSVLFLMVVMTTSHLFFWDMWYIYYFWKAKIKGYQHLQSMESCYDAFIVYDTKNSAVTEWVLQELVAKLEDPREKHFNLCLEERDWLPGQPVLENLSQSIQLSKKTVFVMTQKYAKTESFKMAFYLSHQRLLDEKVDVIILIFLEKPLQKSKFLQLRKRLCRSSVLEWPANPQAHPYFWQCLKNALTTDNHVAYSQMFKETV
Chain of TLR7 and TLR8 (Mus musculus) (P58682 whole entry, looked up): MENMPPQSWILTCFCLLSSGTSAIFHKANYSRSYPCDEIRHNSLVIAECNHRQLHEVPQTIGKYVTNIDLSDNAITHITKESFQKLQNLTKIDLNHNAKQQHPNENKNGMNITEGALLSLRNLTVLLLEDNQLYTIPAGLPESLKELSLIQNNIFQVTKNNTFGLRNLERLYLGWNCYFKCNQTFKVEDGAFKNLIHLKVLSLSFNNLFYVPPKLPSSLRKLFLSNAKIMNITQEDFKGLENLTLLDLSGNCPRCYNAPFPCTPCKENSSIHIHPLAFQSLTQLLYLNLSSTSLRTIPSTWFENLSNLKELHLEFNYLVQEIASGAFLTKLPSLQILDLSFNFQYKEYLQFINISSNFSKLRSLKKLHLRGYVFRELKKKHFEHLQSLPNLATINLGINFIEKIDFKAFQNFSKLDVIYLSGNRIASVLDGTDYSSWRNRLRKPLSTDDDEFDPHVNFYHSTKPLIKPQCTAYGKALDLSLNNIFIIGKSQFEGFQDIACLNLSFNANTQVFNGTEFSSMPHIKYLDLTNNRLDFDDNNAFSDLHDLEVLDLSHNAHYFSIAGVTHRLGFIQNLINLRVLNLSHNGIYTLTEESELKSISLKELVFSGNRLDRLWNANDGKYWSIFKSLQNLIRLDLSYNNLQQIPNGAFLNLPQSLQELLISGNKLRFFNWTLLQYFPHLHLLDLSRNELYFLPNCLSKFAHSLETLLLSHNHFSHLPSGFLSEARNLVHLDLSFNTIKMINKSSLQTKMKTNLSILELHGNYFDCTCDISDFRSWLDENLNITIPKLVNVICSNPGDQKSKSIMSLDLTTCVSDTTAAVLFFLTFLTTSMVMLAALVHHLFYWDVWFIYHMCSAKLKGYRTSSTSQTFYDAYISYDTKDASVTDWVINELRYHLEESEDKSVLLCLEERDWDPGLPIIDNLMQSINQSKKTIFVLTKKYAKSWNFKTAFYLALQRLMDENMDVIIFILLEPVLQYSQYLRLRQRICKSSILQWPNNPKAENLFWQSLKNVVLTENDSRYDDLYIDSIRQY
T2 sequence (O60603 whole entry): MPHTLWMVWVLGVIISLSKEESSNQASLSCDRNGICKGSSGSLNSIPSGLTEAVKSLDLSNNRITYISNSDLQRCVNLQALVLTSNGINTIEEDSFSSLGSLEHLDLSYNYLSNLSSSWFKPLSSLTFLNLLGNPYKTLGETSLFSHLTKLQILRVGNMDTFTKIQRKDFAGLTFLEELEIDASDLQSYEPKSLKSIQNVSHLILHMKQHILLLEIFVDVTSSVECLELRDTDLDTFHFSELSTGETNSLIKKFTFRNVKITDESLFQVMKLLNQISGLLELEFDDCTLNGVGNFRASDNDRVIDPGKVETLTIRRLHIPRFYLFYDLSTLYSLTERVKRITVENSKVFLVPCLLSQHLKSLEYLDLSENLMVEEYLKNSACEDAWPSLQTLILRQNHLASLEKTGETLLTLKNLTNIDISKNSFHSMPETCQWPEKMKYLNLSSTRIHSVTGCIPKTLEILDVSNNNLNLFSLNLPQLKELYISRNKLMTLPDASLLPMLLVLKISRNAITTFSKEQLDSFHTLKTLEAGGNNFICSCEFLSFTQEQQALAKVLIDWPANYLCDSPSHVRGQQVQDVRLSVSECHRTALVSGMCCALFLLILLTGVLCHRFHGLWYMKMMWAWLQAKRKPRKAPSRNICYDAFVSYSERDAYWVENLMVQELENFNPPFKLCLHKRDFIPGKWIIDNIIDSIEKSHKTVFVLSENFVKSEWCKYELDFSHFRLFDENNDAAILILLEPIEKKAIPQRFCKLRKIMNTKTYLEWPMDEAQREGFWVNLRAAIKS
T2 sequence (Q15399 whole entry): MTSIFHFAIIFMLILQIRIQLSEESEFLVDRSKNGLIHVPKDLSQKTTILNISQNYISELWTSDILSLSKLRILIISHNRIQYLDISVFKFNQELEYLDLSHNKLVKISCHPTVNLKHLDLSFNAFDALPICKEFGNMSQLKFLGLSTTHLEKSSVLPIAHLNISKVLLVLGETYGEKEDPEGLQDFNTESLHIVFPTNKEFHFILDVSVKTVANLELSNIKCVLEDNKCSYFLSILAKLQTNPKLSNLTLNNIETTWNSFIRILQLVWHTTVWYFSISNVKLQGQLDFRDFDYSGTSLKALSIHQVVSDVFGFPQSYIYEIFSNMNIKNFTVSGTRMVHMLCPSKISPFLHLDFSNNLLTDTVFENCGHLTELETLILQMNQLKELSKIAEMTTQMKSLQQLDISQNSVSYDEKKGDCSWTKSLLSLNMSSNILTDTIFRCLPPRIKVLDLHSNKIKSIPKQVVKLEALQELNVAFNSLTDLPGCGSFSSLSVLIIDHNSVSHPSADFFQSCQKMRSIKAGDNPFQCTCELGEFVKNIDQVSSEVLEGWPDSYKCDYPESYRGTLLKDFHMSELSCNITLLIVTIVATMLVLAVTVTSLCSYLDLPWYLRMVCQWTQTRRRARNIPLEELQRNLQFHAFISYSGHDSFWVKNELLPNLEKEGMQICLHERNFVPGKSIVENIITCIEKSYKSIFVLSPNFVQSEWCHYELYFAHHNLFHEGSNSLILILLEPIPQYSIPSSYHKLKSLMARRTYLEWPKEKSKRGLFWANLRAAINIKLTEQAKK

C=C1[C@@H](C)[C@H]2[C@H](Cc3ccccc3)NC(=O)[C@]23[C@H](OC(C)=O)/C=C/[C@@](C)(O)C(=O)[C@@H](C)C/C=C/[C@H]3[C@@H]1O
inhibition [1]: Active

Cc1cc(NC(=O)NC(=O)c2ccccc2N(C)C)ccc1Oc1ncc(Br)cn1
inhibition (Toll-like receptor 1/2 [2]): Active
inhibition (Toll-like receptor 1/2 [3]): Active

H-ENLMVEEY-OH
inhibition (Toll-like receptor 1/2 [4]): 66%

H-ENLMVEEYLK-OH
inhibition [5]: Active
inhibition (TLR2/TLR6 (Homo sapiens)): inactive
Activity [6]: 80%
Activity (BMDM): Non-Toxic
IC50 (Toll-like receptor 1/2 [7]): 45.8 µM
inhibition (Toll-like receptor 1/2 [7]): Dose-dependent effect
inhibition [8]: inactive
Activity [9]: 70.2%
inhibition [10]: inactive
Activity (Toll-like receptor 1/2 [11]): 51%
Activity (HEK293): Non-Toxic
inhibition (Toll-like receptor 1/2 [12]): Active
inhibition (Toll-like receptor 1/2 [13]): Active
Activity (Toll-like receptor 1/2 [14]): 727 pg/mL
Activity (THP-1): Non-Toxic
inhibition (Toll-like receptor 1/2 [15]): Active
inhibition (Toll-like receptor 1/2 [16]): inactive
inhibition (Toll-like receptor 1/2 [17]): 50%
inhibition [18]: inactive
inhibition (Toll-like receptor 1/2 [19]): Active

H-ENSKVFLVPC-OH
inhibition (Toll-like receptor 1/2 [4]): Active

H-HIPRFYLFY-OH
inhibition (Toll-like receptor 1/2 [4]): 56%

H-HIPRFYLFYD-OH
inhibition (Toll-like receptor 1/2 [20]): Active
inhibition [5]: Active
inhibition (TLR2/TLR6 (Homo sapiens)): inactive
Activity [6]: 70%
Activity (BMDM): Non-Toxic
IC50 (Toll-like receptor 1/2 [7]): 49.2 µM
inhibition (Toll-like receptor 1/2 [7]): Dose-dependent effect
inhibition [8]: inactive
Activity [9]: 37.4%
inhibition [10]: inactive
Activity (Toll-like receptor 1/2 [11]): 51%
Activity (HEK293): Non-Toxic
inhibition (Toll-like receptor 1/2 [12]): Active
inhibition (Toll-like receptor 1/2 [13]): Active
Activity (THP-1): Non-Toxic
inhibition (Toll-like receptor 1/2 [15]): Active
inhibition (Toll-like receptor 1/2 [16]): inactive
inhibition (Toll-like receptor 1/2 [17]): 50%
inhibition [18]: inactive
inhibition (Toll-like receptor 1/2 [19]): Active

H-LHIPRFYLFYD-OH
inhibition (Toll-like receptor 1/2 [4]): 56%

H-RLHIPRFYL-OH
inhibition (Toll-like receptor 1/2 [4]): 81.9%

H-SENLMVEEYLK-OH
inhibition (Toll-like receptor 1/2 [4]): 56%

H-TIRRLHIPR-OH
inhibition (Toll-like receptor 1/2 [4]): 84.1%

H-VETLTIRRL-OH
inhibition (Toll-like receptor 1/2 [4]): 86%

H-VVSDVFGFP-OH
inhibition (Toll-like receptor 1/2 [4]): Active
